Reference: the NIST ThermoML archive (doi:10.1016/j.fluid.2005.09.025)
Numbers after ± are expanded uncertainties.

Conditions: 298.15 K, 101.33 kPa, Liquid

| mass density | mass density (Vibrating tube method) | SMILES |
| --- | --- | --- |
| 764.96 ± 0.35 kg/m3 |  | CC1CCCCC1 [methylcyclohexane] |
|  | 648.45 ± 0.22 kg/m3 | CCCC(C)C [2-methylpentane] |
|  | 786.55 ± 0.16 kg/m3 | CO [methanol] |
|  | 943.81 ± 0.09 kg/m3 | CN(C)C=O [dimethylformamide] |
